Test: Inhibitory activity against HIV-1 IIIB in CEM-SS infected cells (Experiment 1)

In the case of `Cc1cn([C@H]2C[C@H](N=[N+]=[N-])[C@@H](CO)O2)c(=O)[nH]c1=O` [1-((2R,4S,5S)-4-Azido-5-hydroxymethyl-tetrahydro-furan-2-yl)-5-methyl-1H-pyrimidine-2,4-dione], the EC50 is reported as 126 nM.

— BindingDB's records for doi:10.1016/s0960-894x(99)00089-x (Kyoto Pharmaceutical University, 1999)
